Data on eleven molecules can be found in patent US11491165B2 (Kinoxis Therapeutics Pty Ltd, priority 2016, dated 2022).

The target of data set [1] is T1, vasopressin 1a receptor (V1aR) (Homo sapiens, UniProt P37288).
T1 construct: expressed in transfected cells
In words: IP1 accumulation assay, V1aR-expressing HEK-293 cells (agonist and antagonist assessment). It counts as cell-based. The conditions noted are these: for EC50: agonist assessment, IP1, 1 h; for IC50: antagonist assessment vs AVP 25 nM (~EC70), IP1. Here is the method:
Cells were subsequently maintained in 10% DMEM containing hygromycin (80 μg/ml), penicillin (100 U/ml), streptomycin (0.1 mg/ml) and blasticidine S hydrochloride (15 μg/ml).
Cells were incubated in tetracycline (2 μg/mL) for 48 h to induce receptor expression. Intracellular IP1 levels induced by activation of the Gq protein coupled to the OTR and V1aR was indexed using the HTRF IP-One kit (CisBio International, Bedford, Mass., USA), according to manufacturer's protocol. For agonist assessment, cells were incubated with logarithmically-spaced concentrations of compounds (1 nM-100 μM) for 1 h prior to the addition of Ab-Cryptate and IP1-d2 for 1 h. The contents of each well were transferred to a white-walled proxy plate (Perkin Elmer) and fluorescence read using a Pherastar Microplate reader (BMG Labtech, Cary, N.C., USA). […] IP1 levels in the presence of compounds and OT or AVP were expressed as a percentage of levels seen with OT or AVP in the presence of vehicle control. Concentration response curves for OT and AVP were determined after 5 min incubation in drug or vehicle, and the data fitted using GraphPad PRISM to a 4-parameter logistic equation of the form y=Min+(Max−Min)/(1+10^((logEC50−X)*n)) where X is drug concentration and n is the H-ill slope. Data represent the mean±s.d. of at least 3 independent experiments, each in duplicate.

Data set [2] deals with T2, oxytocin receptor (OXTR), hOTR (Homo sapiens, UniProt P30559).
T2 construct: expressed in transfected cells
T2 sequence (P30559 1-389): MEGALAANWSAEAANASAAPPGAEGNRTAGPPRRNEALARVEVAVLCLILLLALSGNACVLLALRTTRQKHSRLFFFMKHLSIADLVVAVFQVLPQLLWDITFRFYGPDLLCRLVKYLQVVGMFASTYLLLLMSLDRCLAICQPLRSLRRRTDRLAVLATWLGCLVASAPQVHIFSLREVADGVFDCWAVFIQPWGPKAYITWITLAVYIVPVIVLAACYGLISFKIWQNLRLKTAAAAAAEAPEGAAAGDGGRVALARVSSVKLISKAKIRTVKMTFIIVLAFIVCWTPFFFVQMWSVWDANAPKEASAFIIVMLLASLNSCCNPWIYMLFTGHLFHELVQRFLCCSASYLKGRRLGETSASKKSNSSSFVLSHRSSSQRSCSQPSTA
The data set can be described thus: IP1 accumulation assay, OTR-expressing HEK-293 cells (agonist and antagonist assessment). Conditions: for EC50: IP1, 1 h; for IC50: antagonist assessment vs OT 30 nM (~EC70); for OV function: ratio of OXTR functional potency to V1aR functional potency, 'OT only' = function at OXTR only; for Emax: HEK293, read-out: OXTR Emax (% OXT). It is filed as cell-based. Here is the method:
(§1) Human embryonic kidney cells (HEK-293) transfected to stably express untagged hOTR and V1aR using the Flp-In™ T-REx™ system (Life Technologies, Carlsbad, Calif. USA) were established as reported in Jorgensen et al., 2016 (the entire disclosure of which is hereby incorporated by reference). Cells were subsequently maintained in 10% DMEM containing hygromycin (80 μg/ml), penicillin (100 U/ml), streptomycin (0.1 mg/ml) and blasticidine S hydrochloride (15 μg/ml).
OTR or V1aR-expressing HEK-293 cells were seeded onto poly-L-lysine (100 μg/ml)-coated 384-well plates at a density of 8.75×10^3 cells per well. Cells were incubated in tetracycline (2 μg/mL) for 48 h to induce receptor expression. Intracellular IP1 levels induced by activation of the Gq protein coupled to the OTR and V1aR was indexed using the HTRF IP-One kit (CisBio International, Bedford, Mass., USA), according to manufacturer's protocol. For agonist assessment, cells were incubated with logarithmically-spaced concentrations of compounds (1 nM-100 μM) for 1 h prior to the addition of Ab-Cryptate and IP1-d2 for 1 h. The contents of each well were transferred to a white-walled proxy plate (Perkin Elmer) and fluorescence read using a Pherastar Microplate reader (BMG Labtech, Cary, N.C., USA). For antagonist assessment, cells were incubated an ˜EC70 concentration of OT (30 nM) or AVP (25 nM) mixed with compounds (1 nM-100 μM) or vehicle control for 1 h. IP1 levels in the presence of compounds and OT or AVP were expressed as a percentage of levels seen with OT or AVP in the presence of vehicle control. Concentration response curves for OT and AVP were determined after 5 min incubation in drug or vehicle, and the data fitted using GraphPad PRISM to a 4-parameter logistic equation of the form y=Min+(Max−Min)/(1+10^((logEC50−X)*n)) where X is drug concentration and n is the H-ill slope. Data represent the mean±s.d. of at least 3 independent experiments, each in duplicate.

Data set [3] concerns the target T2, oxytocin receptor (OXTR), hOTR. In words: Competition radioligand binding, [3H]-oxytocin, OTR-expressing HEK293 membranes. The conditions noted are these: [3H]-oxytocin 10 nM, 90 min 4 °C. The procedure:
as §1
(§2) To induce receptor expression, cells were incubated with tetracycline (2 μg/mL) for 48 h. PBS with 5 mM EDTA (pH 7.4) was used to detach OTR and V1aR-expressing HEK293 cells from culture flasks. Harvested cells were centrifuged at 1200 g for 5 min and were resuspended in homogenization buffer (50 mM HEPES, 5 mM EDTA, 5 mM MgCl2; pH 7.4) prior to homogenization using an Ultra-Turrax homogeniser (IKA, Wilmington, N.C., USA). Homogenates were centrifuged three times for 30 min at 48.000 g, 4° C. for 30 min and membrane pellets resuspended in 50 mM Tris HCl, 5 mM MgCl2 (pH 7.4). A bicinchoninic acid assay was used according to the manufacturer's protocol (Bio-Rad, Hercules. Calif., USA) to measure final protein concentration. Membranes were stored at −80° C. until use in competition radioligand binding studies.
(§3) Reactions were incubated for 90 min at 4° C. to reach equilibrium, and terminated by rapid filtration over glass fibre filters (Whatman GF/A […]; Millipore, Darmstadt, Germany), and washing with ice-cold reaction buffer. Filters were dried, then incubated with Microscint 0 (Perkin Elmer) for 30 min before radioactivity was detected with a Microbeta2 2450 microplate-reader (Perkin Elmer). […] Specific binding in the presence of compounds was expressed as a percentage of specific binding in the presence of vehicle control. A sum-of-squares F-test was used to compare the goodness of fit of one-site, two-site and sigmoidal with variable hill slope binding models, and to calculate Ki's using Graphpad Prism (Graphpad Software, La Jolla, Calif., USA).

In data set [4] the target is T1, vasopressin 1a receptor (V1aR). In words: Competition radioligand binding, [3H]-vasopressin, V1aR-expressing HEK293 membranes. Conditions: [3H]-vasopressin 2 nM, 90 min 4 °C. Here is the method:
as §1, §2, §3

T1 sequence (P37288 whole entry): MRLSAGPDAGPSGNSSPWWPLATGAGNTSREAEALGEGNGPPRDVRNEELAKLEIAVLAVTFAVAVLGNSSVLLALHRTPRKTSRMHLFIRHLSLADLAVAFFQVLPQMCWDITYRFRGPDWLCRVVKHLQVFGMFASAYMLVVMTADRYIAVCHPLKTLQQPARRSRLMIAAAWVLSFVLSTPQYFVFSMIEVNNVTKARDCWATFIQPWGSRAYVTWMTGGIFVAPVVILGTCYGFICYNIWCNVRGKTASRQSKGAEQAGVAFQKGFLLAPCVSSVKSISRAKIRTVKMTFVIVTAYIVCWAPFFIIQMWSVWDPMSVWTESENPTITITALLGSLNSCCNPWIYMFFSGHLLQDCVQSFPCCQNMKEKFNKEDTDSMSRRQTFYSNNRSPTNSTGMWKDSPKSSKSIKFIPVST

`Cn1ncc2c1Nc1ccccc1N(C(=O)c1ccc(OCc3ccccc3)cc1)C2` [BzE, (4-(benzyloxy)phenyl)(1-methyl-4,10-dihydrobenzo[b]pyrazolo[3,4-e][1,4]diazepin-5 (1H)-yl)methanone]: the melting point (usually the temperature of the solid-liquid transition) was in the range of 207 to 209 °C. In addition, in data set [1], the EC50 (usually the concentration at which the effect is half-maximal) was greater than 10 µM and the IC50 (usually the concentration that gives 50% inhibition) worked out at 1.59 ± 0.486 µM. Moreover, in data set [2] (agonist assessment), the EC50 was greater than 10 µM. In data set [2] (IP1), this molecule displayed a half-maximal inhibitory concentration (IC50) of 0.179 µM. For the same molecule, the OV function in data set [2] was 0.11. Besides, in data set [3], the Ki (usually a measure of affinity in units of concentration, obtained from inhibition or displacement) worked out at 0.176 ± 0.041 µM. The molecule also gave a Ki in data set [4] of 0.035 ± 0.005 µM.
The molecule `Cn1ncc2c1Nc1ccccc1N(C(=O)C1CC1)C2` [CA3 (KA), cyclopropyl(1-methyl-4,10-dihydrobenzo[b]pyrazolo[3,4-e][1,4]diazepin-5 (1H)-yl)methanone] yielded a melting point of 207 to 209 °C. In data set [1], this molecule registered an EC50 greater than 10 µM and an IC50 greater than 10 µM. Further, in data set [2] (agonist assessment), the EC50 is greater than 10 µM. The same molecule returned an IC50 in data set [2] (IP1) greater than 10 µM. Moreover, the Ki in data set [3] is greater than 10 µM. In data set [4], this molecule had a Ki of 3.37 ± 0.74 µM.
The molecule `Cn1ncc2c1Nc1ccccc1N(C(=O)C1CCCC1)C2` [CAS (KA), cyclopentyl(1-methyl-4,10-dihydrobenzo[b]pyrazolo[3,4-e][1,4]diazepin-5 (1H)-yl)methanone] displayed a melting point greater than 300 °C. In data set [1], the EC50 was greater than 10 µM and the IC50 was greater than 10 µM. In data set [2], the Emax (as a rule, the maximal effect, on the per cent scale that the assay sets) was found to be 10% and the OV function is less than 0.33. Also, a half-maximal response in data set [2] (agonist assessment) (EC50) required 3.39 ± 0.448 µM. Further, the Ki in data set [3] was greater than 10 µM. In data set [4], this molecule displayed a Ki of 0.553 ± 0.067 µM.
In data set [1], `CCc1ccc(C(=O)N2Cc3cnn(C)c3Nc3ccccc32)cc1` [TRGA99, (4-ethylphenyl)(1-methyl-4,10-dihydrobenzo[b]pyrazolo[3,4-e][1,4]diazepin-5 (1H)-yl)methanone] showed an EC50 greater than 10 µM and an IC50 of 1.65 ± 0.075 µM. For the same molecule, in data set [2], the Emax came to 8% and the OV function is given as 0.02. Moreover, in data set [2] (agonist assessment), the response was half-maximal at 0.041 ± 0.015 µM (EC50). The same molecule returned a Ki in data set [3] of 0.022 ± 0.008 µM. The molecule further came in with a Ki in data set [4] of 0.0018 ± 0.0006 µM.
On to `Cn1ncc2c1Nc1ccccc1N(C(=O)C1C(C)(C)C1(C)C)C2` [TRGA111, (1-methyl-4,10-dihydrobenzo[b]pyrazolo[3,4-e][1,4]diazepin-5 (1H)-yl)(2,2,3,3-tetramethylcyclopropyl)methanone], for which the EC50 in data set [1] and in data set [2] (agonist assessment) was greater than 10 µM each time. The IC50 in data set [1] and in data set [2] (IP1) was greater than 10 µM throughout. The Ki in data set [3] and in data set [4] was greater than 10 µM in each case.
In turn, `Cn1ncc2c1Nc1ccccc1N(C(=O)c1cc(O)cc(O)c1)C2` [WJ0623, (3,5-Dihydroxyphenyl)(1-methyl-4,10-dihydrobenzo[b]pyrazolo[3,4-e][1,4]diazepin-5 (1H)-yl)methanone] gave a melting point greater than 300 °C. In data set [1], this molecule returned an EC50 greater than 10 µM and an IC50 of 0.205 ± 0.0576 µM. This molecule gave an EC50 in data set [2] (agonist assessment) greater than 10 µM. In addition, the IC50 in data set [2] (IP1) came out at 1.76 µM. Moreover, in data set [2], the OV function was 8.59. This molecule registered a Ki in data set [3] of 0.0926 ± 0.01 µM. Besides, in data set [4], the Ki came to 0.0046 ± 0.0013 µM.
For `COc1cc(CN2Cc3cnn(C)c3Nc3ccccc32)cc(OC)c1` [WJ0625, 5-(3,5-Dimethoxybenzyl)-1-methyl-1,4,5,10-tetrahydrobenzo[b]pyrazolo[3,4-e][1,4]diazepine], the melting point lay within 210 to 212 °C. Besides, in data set [1], the EC50 was greater than 10 µM and the IC50 is greater than 10 µM. This molecule also gave an EC50 in data set [2] (agonist assessment) greater than 10 µM. In data set [2] (IP1), this molecule gave an IC50 greater than 10 µM. Besides, the Ki in data set [3] was greater than 10 µM. Besides, in data set [4], the Ki was greater than 10 µM.
With `Cn1ncc2c1Nc1ccccc1N(Cc1cc(O)cc(O)c1)C2` [WJ0627, 5-((1-Methyl-4,10-dihydrobenzo[b]pyrazolo[3,4-e][1,4]diazepin-5(1H)-yl)methyl)benzene-1,3-diol], the melting point lay in the range of 236 to 238 °C. In data set [1], this molecule had an EC50 greater than 10 µM and an IC50 greater than 10 µM. The molecule also yielded an EC50 in data set [2] (agonist assessment) greater than 10 µM. The IC50 in data set [2] (IP1) was greater than 10 µM. In data set [3], this molecule yielded a Ki greater than 10 µM. The same molecule displayed a Ki in data set [4] greater than 10 µM.
In the case of `COc1cc(OC)cc(C(=O)N2Cc3cnn(C)c3Nc3ccccc32)c1` [WJ0629, (3,5-Dimethoxyphenyl)(1-methyl-4,10-dihydrobenzo[b]pyrazolo[3,4-e][1,4]diazepin-5 (1H)-yl)methanone], the melting point was 279 to 281 °C (dec.). In data set [1], the EC50 is greater than 10 µM and the IC50 turned out to be 0.0948 ± 0.0077 µM. This molecule also returned an EC50 in data set [2] (agonist assessment) greater than 10 µM. Further, in data set [2] (IP1), the IC50 was 1.77 µM. Further, the OV function in data set [2] turned out to be 18.63. This molecule also returned a Ki in data set [3] of 0.316 ± 0.0792 µM. The same molecule showed a Ki in data set [4] of 0.0129 ± 0.0015 µM.
Regarding `Cc1cc(C(=O)N2Cc3cnn(C)c3Nc3ccccc32)ccc1CN` [WJ0761], in data set [1], the EC50 was greater than 10 µM and the IC50 was greater than 10 µM. For the same molecule, in data set [2], the Emax came out at 8% and the OV function is less than 0.92. In data set [2] (agonist assessment), this molecule registered an EC50 of 9.19 ± 1.62 µM. The same molecule showed a Ki in data set [3] greater than 10 µM. The molecule further displayed an inhibitory constant (Ki) in data set [4] of 0.0447 ± 0.005 µM.
For `Cn1ncc2c1Nc1ccccc1N(C(=O)c1ccc(Cl)c(Cl)c1)C2` [WJ0824, (3,4-Dichlorophenyl)(1-methyl-4,10-dihydrobenzo[b]pyrazolo[3,4-e][1,4]diazepin-5 (1H)-yl)methanone], the EC50 was greater than 10 µM in data set [1] and 0.438 ± 0.127 µM in data set [2] (agonist assessment). The same molecule yielded an IC50 in data set [1] greater than 10 µM. Further, the Emax in data set [2] was 12.9%. Also, the “EC50 (OXTR agonist potency, mean ± s.d.)” value in data set [2] (agonist assessment, IP1) was determined as 0.3218 µM. Also, the Ki came to 1.62 ± 0.243 µM in data set [3] and 0.455 ± 0.112 µM in data set [4].
